Measurements reported in patent US4342870A, “Novel 3-(1-piperidinylalkyl)-4H-pyrido[1,2-a]pyrimidin-4-one derivatives” (Janssen Pharmaceutica N.V., priority 1980, dated 1982).

How the values were obtained:
[1] = system: gastric lesions induced by compound 48/80; assay: Gastric lesion test: lesions induced by compound 48/80 (Test 2); assay type: in vivo, rat (male, Wistar inbred strain); conditions: Rattus norvegicus, po
Description: Test 2: Effects in gastric lesion tests
The shock, followed by dead, can be avoided if the rats are pretreated with a classical H 1 antagonist.
Male rats of a Wistar inbred strain, weighing 200-250 g, are starved overnight, water being available ad libitum. The test compounds are administered orally as a solution or as a suspension in aqueous medium. A control rat and a "blank" rat […]. One hour later 5-[4-(diphenylmethyl)-1-piperazinylmethyl]-1-methyl-1H-benzimidazole-2-methanol is administered subcutaneously to all rats at the dose of 2.5 mg/kg. […] Four hours after the intravenous injection of compound 48/80, the rats are decapitated and the stomachs are removed. Subsequently the stomachs are inspected for distension and contents (blood, fluid, food) and thoroughly rinsed. The macroscopic lesions are secured from 0 to +++, 0 corresponding to complete absence of visible lesions and the highest score corresponding to reddish rough patches covering more than half the glandular area.

[2] = system: effect of serotonin on the caudal artery of the rat; assay: Antagonistic activity on the effect of serotonin on the caudal artery of the rat (Test 1); conditions: minimal concentration reducing amplitude of serotonin (40 ng/ml) contraction to at least 50% of normal; rat caudal artery strips; 5 min
Description: Test 1: Anta gonistic activity on the effect of serotonin on the caudal artery of the rat.
Caudal arteries from fasted male rats (210-235 g) are used in the test. Two helical strips having a length of 5-6 cm and a width of 2 mm are obtained from each artery and mounted vertically in a 100 ml organ bath containing an oxygenated Krebs-Henseleit solution. Submaximal contractions of the arterial strips are produced by adding single doses of serotonin (40 ng/ml) to the organ bath for 2 minutes with each time an interval of 10 minutes. The amplitude of the contraction is measured before and 5 minutes after adding the drug. After washing out, the agonist is added again three times in order to see whether the contraction is restored and normalized. […] In this connection the ED50 -values are the minimal concentrations of the concerned drugs which reduce the amplitude of the contraction to at least 50% of its normal value.

[3] = system: rats injected with compound 48/80; conditions: known serotonin antagonists; cited from earlier work

Row | SMILES | ED50 [1] [mg/kg] | Caudal Artery ED50 [2] [ng/mL] | prevention of cyanosis of ears and extremities, of lesions in the glandular area of the stomach and of abnormal gastric distension [3]
1 | Cc1cc(C)n2c(=O)c(CCN3CCC(C(=O)c4ccc(F)cc4)CC3)c(C)nc2c1 [6-CH3 8-CH3 CH2CH2 H C6 H4.4F] | 0.02 | 0.16 | 
2 | Cc1cc(C)n2c(=O)c(CCN3CCC(c4c[nH]c5ccccc45)CC3)c(C)nc2c1 [6-CH3 8-CH3, 3-[2-[4-(1H-indol-3-yl)-1-piperidinyl]ethyl]-2,6,8-trimethyl-4H-pyrido[1,2-a]pyrimidin-4-one] | 0.63 | 0.16 | 
3 | Cc1nc2cccc(C)n2c(=O)c1CCN1CCC(C(=O)c2ccc(F)cc2)CC1 [H 6-CH3 CH2CH2 H C6 H4 .4F] | 2.5 | < 0.63 | 
4 | Cc1nc2cccc(C)n2c(=O)c1CCN1CCC(c2c[nH]c3ccccc23)CC1 [H 6-CH3, 3-[2-[4-(1H-indol-3-yl)-1-piperidinyl]ethyl]-2,6-dimethyl-4H-pyrido[1,2-a]pyrimidin-4-one] | 0.16 | 0.08 | 
5 | Cc1nc2ccc(Br)cn2c(=O)c1CCN1CCC(C(=O)c2ccc(F)cc2)CC1 [H 7-Br CH2CH2 H C6 H4 .4F] | < 0.63 | 0.31 | 
6 | Cc1nc2ccc(Br)cn2c(=O)c1CCN1CCC(c2c[nH]c3ccccc23)CC1 [H 7-Br, 7-bromo-3-[2-[4-(1H-indol-3-yl)-1-piperidinyl]ethyl]-2-methyl-4H-pyrido[1,2-a]pyrimidin-4-one] | 1.25 | 0.31 | 
7 | Cc1ccc2nc(C)c(CCN3CCC(C(=O)c4ccc(F)cc4)CC3)c(=O)n2c1 [H 7-CH3 CH2CH2 H C6 H4.4F] | 0.02 | 0.31 | 
8 | Cc1ccc2nc(C)c(CCN3CCC(c4c[nH]c5ccccc45)CC3)c(=O)n2c1 [H 7-CH3, 3-[2-[4-(1H-indol-3-yl)-1-piperidinyl]ethyl]-2,7-dimethyl-4H-pyrido-[1,2-a]pyrimidin-4-one] | 0.63 | 0.31 | 
9 | Cc1nc2ccc(Cl)cn2c(=O)c1CCN1CCC(C(=O)c2ccc(F)cc2)CC1 [H 7-Cl CH2CH2 H C6 H4.4F] | 0.01 | 1.25 | 
10 | Cc1nc2ccc(Cl)cn2c(=O)c1CCN1CCC(c2c[nH]c3ccccc23)CC1 [H 7-Cl, 7-chloro-3-[2-[4-(1H-indol-3-yl)-1-piperidinyl]ethyl]-2-methyl-4H-pyrido[1,2-a]pyrimidin-4-one] | 0.63 | 0.63 | 
11 | Cc1ccn2c(=O)c(CCN3CCC(C(=O)c4ccc(F)cc4)CC3)c(C)nc2c1 [H 8-CH3 CH2CH2 H C6 H4 .4F] | 0.04 | < 2.5 | 
12 | Cc1ccn2c(=O)c(CCN3CCC(c4c[nH]c5ccccc45)CC3)c(C)nc2c1 [H 8-CH3, 3-[2-[4-(1H-indol-3-yl)-1-piperidinyl]ethyl]-2,8-dimethyl-4H-pyrido[1,2-a]pyrimidin-4-one] | 0.04 | 0.31 | 
13 | Cc1nc2ccccn2c(=O)c1CCN1CCC(CO)(C(=O)c2ccc(F)cc2)CC1.Cl.Cl.O [H H CH2CH2 CH2 OH C6 H4 .4F, 3-[2-[4-(4-fluorobenzoyl)-4-(hydroxymethyl)-1-piperidinyl]ethyl]-2-methyl-4H-pyrido[1,2-a]pyrimidin-4-one dihydrochloride monohydrate] | < 0.63 |  | 
14 | Cc1nc2ccccn2c(=O)c1CCN1CCC(C)(C(=O)c2ccc(F)cc2)CC1 [H H CH2CH2 CH3 C6 H 4 .4F] | 0.16 | 0.63 | 
15 | Cc1nc2ccccn2c(=O)c1CCN1CCC(C(=O)c2cccs2)CC1 [H H CH2CH2 H 2-thienyl] |  | 1.3 | 
16 | Cc1nc2ccccn2c(=O)c1CCN1CCC(C(=O)c2ccc(F)cc2)CC1 [H H CH2CH2 H C6 H4 .4F, 3-[2-[4-(4-fluorobenzoyl)-1-piperidinyl]ethyl]-2-methyl-4H-pyrido[1,2-a]pyrimidin-4-one] | 0.016 | 0.32 | 
17 | Cc1ccccc1C(=O)C1CCN(CCc2c(C)nc3ccccn3c2=O)CC1 [H H CH2CH2 H C6 H4.2CH3] |  | 1.25 | 
18 | Cc1nc2ccccn2c(=O)c1CCN1CCC(C(=O)c2ccccc2)CC1 [H H CH2CH2 H C6 H5, 3-[2-(4-benzoyl-1-piperidinyl)ethyl]-2-methyl-4H-pyrido[1,2-a]pyrimidin-4-one] | 0.63 | 0.63 | 
19 | Cc1nc2ccccn2c(=O)c1CCN1CCC(O)(C(=O)c2ccc(F)cc2)CC1 [H H CH2CH2 OH C6 H4 .4F] | 2.5 | 0.31 | 
20 | Cc1nc2ccccn2c(=O)c1CC(C)N1CCC(C(=O)c2ccc(F)cc2)CC1 (stereo not shown) [H H drawing 24 H C6 H4 .4F] | 2.5 |  | 
21 | Cc1nc2ccccn2c(=O)c1CCN1CCC(c2c[nH]c3ccccc23)CC1 [H H, 3-[2-[4-(1H-indol-3-yl)-1-piperidinyl]ethyl]-2-methyl-4H-pyrido[1,2-a]pyrimidin-4-one] | 0.08 | 0.14 | 
22 | CN(C)CCCSc1ccccc1NC(=O)/C=C/c1ccccc1 [cinanserin] |  |  | prevent completely
23 | CN1CCC(=C2c3ccccc3C=Cc3ccccc32)CC1 [cyproheptadine] |  |  | prevent completely
24 | CN1C[C@H](CNC(=O)OCc2ccccc2)C[C@@H]2c3cccc4c3c(cn4C)C[C@H]21 [metergoline] |  |  | prevent completely
25 | CC[C@@H](CO)NC(=O)[C@@H]1C=C2c3cccc4c3c(cn4C)C[C@H]2N(C)C1 [methysergide] |  |  | prevent completely
26 | CN1CCN2c3ccccc3Cc3ccccc3C2C1 (stereo not shown) [mianserin] |  |  | prevent completely
27 | NC(=O)C1(N2CCCCC2)CCN(CCCC(=O)c2ccc(F)cc2)CC1 [pipamperone] |  |  | prevent completely
28 | CN1CCC(=C2c3ccccc3CCc3sccc32)CC1 [pizotifen] |  |  | prevent completely
29 | O=C(CCCN1CCC2(CC1)C(=O)NCN2c1ccccc1)c1ccc(F)cc1 [spiperone] |  |  | prevent completely
